Among the test systems are A498 renal; EKVX NSCLC; HCC-2998 colon; IGROV1 ovarian; K-562 leukemia; MOLT-4 leukemia; OVCAR-5 ovarian; SF-268 CNS; SF-539 CNS; UACC-257 melanoma.
Assay in all cases: NCI tumour cell line growth inhibition, 48 h

The structures appear in SMILES notation.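 A five-concentration, 48-hour dose response in 96-well plates underlies each endpoint, interpolated linearly between surrounding concentrations. GI50 marks 50% less growth. TGI denotes the concentration required for complete inhibition of growth.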

With `CN(CCO)CCC1COc2ccccc2O1` (stereo not given), the TGI with A498 renal, in the assay on EKVX NSCLC, in the assay on HCC-2998 colon, in the assay with IGROV1 ovarian, with K-562 leukemia and in the assay with MOLT-4 leukemia was > 10 µM each time. Also, the TGI in the assay on OVCAR-5 ovarian, with SF-268 CNS and in the assay with SF-539 CNS was > 10 µM throughout.

Turning to `N#C[S-].[Ce+3].c1ccc(-c2ccccn2)nc1.c1ccc(-c2ccccn2)nc1.c1ccc(-c2ccccn2)nc1`, the GI50 in the assay on EKVX NSCLC was 8.61 µM; with HCC-2998 colon it was 18.3 µM; in the assay with IGROV1 ovarian, 24.5 µM; in the assay on OVCAR-5 ovarian it was 6.15 µM; with SF-539 CNS it was 27.3 µM; in the assay on UACC-257 melanoma, 21.4 µM. For the same compound, the TGI is > 100 µM with EKVX NSCLC; > 100 µM with HCC-2998 colon; 69 µM in the assay with IGROV1 ovarian; 42.9 µM in the assay on OVCAR-5 ovarian; > 100 µM in the assay with SF-539 CNS; 64.1 µM in the assay with UACC-257 melanoma.

Turning to `COC1=CC(c2ccc[nH]2)=N/C1=C\c1[nH]c(C)c(CC(=O)NCc2ccccc2)c1C`, the GI50 is 1.28 µM in the assay on A498 renal; 1.06 µM in the assay with EKVX NSCLC; 1.55 µM in the assay with HCC-2998 colon; 1.89 µM in the assay on SF-539 CNS; 1.72 µM in the assay on UACC-257 melanoma. For the same compound, the TGI in the assay on A498 renal was found to be 2.71 µM; in the assay with EKVX NSCLC, 2.47 µM; in the assay with HCC-2998 colon it was 3.07 µM; in the assay with SF-539 CNS, 3.51 µM; in the assay with UACC-257 melanoma, 3.17 µM.

As for `COc1nc2ccc(Cl)c(C(O)c3ccccc3)c2nc1OC` (stereo not given), the TGI is 37.1 µM in the assay with A498 renal; > 100 µM in the assay on EKVX NSCLC; > 100 µM with IGROV1 ovarian; > 100 µM with K-562 leukemia; 46.4 µM in the assay on MOLT-4 leukemia; > 100 µM with OVCAR-5 ovarian. For the same compound, the TGI in the assay on SF-268 CNS was 84.5 µM; in the assay with SF-539 CNS it was 32.8 µM; in the assay with UACC-257 melanoma it was 59.2 µM.

Turning to `N/C(=C\c1ccc(/C=C(\NC(=O)c2ccccc2)c2nc3c([nH]2)C(=O)c2ccccc2C3=O)cc1)c1nc2c([nH]1)C(=O)c1ccccc1C2=O`, the TGI was found to be 29.9 µM with A498 renal; 55.7 µM in the assay on EKVX NSCLC; 40.3 µM in the assay with IGROV1 ovarian; 43.5 µM with K-562 leukemia; 29.3 µM with MOLT-4 leukemia; 40.5 µM with OVCAR-5 ovarian. The values for the TGI in the assay with SF-268 CNS, in the assay with SF-539 CNS and in the assay with UACC-257 melanoma were 30.6 µM, 30.2 µM and 36.2 µM, respectively.

In the case of `COC(Cc1cc(C(O)(c2ccc(C(C)(C)C)cc2)c2cc(CC(OC)(c3cc(C(OC)(c4ccc(C(C)(C)C)cc4)c4ccc(C(C)(C)C)cc4)c(C)cc3C)c3cc(C(OC)(c4ccc(C(C)(C)C)cc4)c4ccc(C(C)(C)C)cc4)c(C)cc3C)c(C)cc2C)c(C)cc1C)(c1cc(C(OC)(c2ccc(C(C)(C)C)cc2)c2ccc(C(C)(C)C)cc2)c(C)cc1C)c1cc(C(OC)(c2ccc(C(C)(C)C)cc2)c2ccc(C(C)(C)C)cc2)c(C)cc1C`, the TGI in the assay on A498 renal, in the assay on EKVX NSCLC, in the assay with HCC-2998 colon, in the assay on IGROV1 ovarian, in the assay with K-562 leukemia and in the assay on MOLT-4 leukemia was > 75 µM each time. In addition, the TGI in the assay on OVCAR-5 ovarian, in the assay with SF-268 CNS, with SF-539 CNS and with UACC-257 melanoma was > 75 µM in each case.

Regarding `N#CC1(C#N)C(=O)c2ccncc2C1=O`, the TGI in the assay with A498 renal, in the assay with EKVX NSCLC, in the assay with HCC-2998 colon, with IGROV1 ovarian, in the assay with K-562 leukemia and with OVCAR-5 ovarian was > 100 µM each time. Also, the TGI in the assay on SF-268 CNS, in the assay with SF-539 CNS and with UACC-257 melanoma was > 100 µM throughout.

With `COc1cc(/C=C2\C(=O)Nc3ccc(Cl)cc32)cc(OC)c1OC`, the GI50 with A498 renal is 23.2 µM; in the assay on EKVX NSCLC it was 13.8 µM; with HCC-2998 colon, 5.82 µM; in the assay with IGROV1 ovarian it was 4.51 µM; in the assay with K-562 leukemia, 4.44 µM; with MOLT-4 leukemia, 75.1 µM. Besides, the GI50 in the assay on OVCAR-5 ovarian is 21.2 µM; in the assay with SF-268 CNS, 8.99 µM; with SF-539 CNS, 16.8 µM; in the assay on UACC-257 melanoma it was 29.5 µM. The TGI in the assay on A498 renal is 72.4 µM; in the assay with EKVX NSCLC, > 100 µM; in the assay on HCC-2998 colon it was 61.2 µM; with IGROV1 ovarian it was > 100 µM; in the assay with K-562 leukemia, > 100 µM; in the assay on MOLT-4 leukemia, > 100 µM. The TGI is 62.3 µM with OVCAR-5 ovarian, > 100 µM with SF-268 CNS, 45.6 µM with SF-539 CNS and > 100 µM in the assay with UACC-257 melanoma.

Consider `CCCC[n+]1ccn(-c2nc3ccccc3n2C)c1`, for which the TGI in the assay on EKVX NSCLC, with HCC-2998 colon, with IGROV1 ovarian, in the assay with K-562 leukemia, in the assay with MOLT-4 leukemia and with OVCAR-5 ovarian was > 100 µM in each case. For the same compound, the TGI with SF-539 CNS and with UACC-257 melanoma was > 100 µM each time.

For `C/C=C(\C)C(=O)OC1C2C(C)=CC(=O)C(O)C2(C)C2C3(O)OCC24C1OC(=O)C(OC(C)=O)C4C(C)C3O` (stereo not given), the TGI in the assay with A498 renal worked out at 0.147 µM; with EKVX NSCLC it was 0.103 µM; in the assay with HCC-2998 colon it was 0.0928 µM; in the assay on IGROV1 ovarian it was 0.16 µM; in the assay on K-562 leukemia it was 0.375 µM; with MOLT-4 leukemia, 0.75 µM. For the same compound, the TGI worked out at 1.53 µM in the assay on OVCAR-5 ovarian, 0.0887 µM in the assay on SF-268 CNS and 0.0496 µM with UACC-257 melanoma.

Source of the values: PubChem BioAssay (NCI).
